This is an account of results in patent US9573907B2, “2, 4-pyrimidine derivatives and use thereof” (SNU R&DB FOUNDATION, priority 2009, dated 2017).

Assay [1] deals with cell surface gp96 of splenocytes isolated from C57BL/6 mice. The assay can be described thus: Flow cytometry of cell surface gp96 on splenocytes. It is filed as cell-based. As to conditions: 10 μM, 24 h. The procedure:
FIGS. 1 to 9 represent suppression of cell surface gp96 by GPM1 reduces DC maturation and B220^+ population in gp96tm transgenic mice. (FIG. 1) Chemical structure of GPM1 (Formula 2) and negative control (NC1, Formula 16) used in this study. (FIG. 2) The dose-dependent effect of GPM1 or NC1 on the AIMP1-gp96 interaction using ELISA method as described. The indicated concentrations of the two compounds and biotin-conjugated murine gp96 were added to AIMP1 coated on the surface of microtiter wells, and gp96 bound to AIMP1 was detected with strepavidin-conjugated peroxidase. (FIG. 3) The binding of GPM1 to gp96 was examined by surface plasmon resonance (SPR). GPM1 at the indicated concentrations was injected to immobilized gp96 and the binding was measured using Biacore 3000. The response data were processed using data from a reference surface and buffer injections. Each concentration was tested in triplicate. (FIG. 4) RAW24.7 cells were treated with 10 μM GPM1 for 24 h. Cell lysates were immunoprecipitated with control IgG or anti-gp96 antibody and the immunoprecipitated proteins were immunoblotted with anti-KDELR1, antiAIMP1 and gp96 antibodies. WCL means whole cell lysate. […] TNFα secreted from BMDCs was quantified by ELISA. […]
A general note: In flow cytometry, cells or beads pass a laser one at a time.

Assay [2] has as its target interaction of gp96 and AIMP1 (Mus musculus, UniProt P08113). As to the kind of experiment: ELISA assay of gp96-AIMP1 interaction. It is filed as binding, murine. As for the experimental part: FIGS. 1 to 9 represent suppression of cell surface gp96 by GPM1 reduces DC maturation and B220^+ population in gp96tm transgenic mice. (FIG. 1) Chemical structure of GPM1 (Formula 2) and negative control (NC1, Formula 16) used in this study. (FIG. 2) The dose-dependent effect of GPM1 or NC1 on the AIMP1-gp96 interaction using ELISA method as described. The indicated concentrations of the two compounds and biotin-conjugated murine gp96 were added to AIMP1 coated on the surface of microtiter wells, and gp96 bound to AIMP1 was detected with strepavidin-conjugated peroxidase. (FIG. 3) The binding of GPM1 to gp96 was examined by surface plasmon resonance (SPR). GPM1 at the indicated concentrations was injected to immobilized gp96 and the binding was measured using Biacore 3000. The response data were processed using data from a reference surface and buffer injections. Each concentration was tested in triplicate. (FIG. 4) RAW24.7 cells were treated with 10 μM GPM1 for 24 h. Cell lysates were immunoprecipitated with control IgG or anti-gp96 antibody and the immunoprecipitated proteins were immunoblotted with anti-KDELR1, antiAIMP1 and gp96 antibodies. WCL means whole cell lysate. (FIG. 5) Splenocytes isolated from C57BL/6 mice were treated with vehicle (5% DMSO in PBS), GPM1, or NC1 (10 μM, 24 h), stained for cell surface gp96, and followed by flow cytometry. (FIG. 6) AIMP1^+/+ or AIMP1^−/− mouse splenocytes (2×10^5 cells) were treated with vehicle, GPM1, or NC1 (10 μM, 24 h), fixed, and then co-cultured with WT bone marrow-derived DCs (1×10^4 cells) for 16 h. TNFα secreted from BMDCs was quantified by ELISA. (FIG. 7) Percentage of gp96^+ MHC class II^+ cell population in splenocytes from gp96tm transgenic female mice treated with vehicle (control) (n=9), GPM1 (n=9), and dexamethasone (n=7) at 30 mg/kg. (FIG. 8) Cell surface ICOSL of CD11b^+CD11c^+ (myeloid DCs), CD11b^−CD11c^+ (lymphoid DCs), and CD11b^+CD11c^− (macrophages) cell populations in splenocytes from gp96tm transgenic female mice treated with vehicle (n=9) and GPM1 (n=9) at 30 mg/kg. (FIG. 9) Percentage of B220^+, MHC class II^+, CD4^+, CD8^+, CD4 and CD8 double negative cell populations in splenocytes from gp96tm transgenic female mice treated with vehicle (n=9), GPM1 (n=9), and dexamethasone (n=7) at 30 mg/kg. Student t-test P values comparing GPM1-treated mice with control are indicated.
96-well plates (Maxisorp., F96; Nunc) were coated with 500 ng/well AIMP1 in PBS (pH 7.4). After washing, the remaining sites were blocked with PBS containing 1% BSA for 1 h. Binding of 10 ng/well biotin-conjugated gp96 was performed in Tris buffer (25 mM Tris, 10 mM NaCl and 0.4% Triton X-100). Each of the 6,580 compounds was added to the well at 100 nM and the plates were washed and incubated with HRP conjugated streptavidin in PBS containing 0.1% BSA and 0.1% Tween 20 for 30 min. The plates were washed, and then substrate was added to each well. The absorbance was monitored at 450 nm.
To identify chemicals that can affect membrane translocation of gp96, the present inventors employed the interaction of gp96 with AIMP1 as the screening target. For this screening, the present inventors chose 6,482 chemicals with different pharmacophore representing 150,000 different chemicals deposited in Korea Chemical Bank and identified the compounds that can inhibit the interaction of the two proteins. For the screening, the present inventors set up a modified ELISA method using recombinant AIMP1 and gp96 proteins as described in Experimental methods. Each of the tested compounds gave different effect on the interaction of the two proteins (FIG. 19). And the present inventors have selected 12 compounds that inhibited the interaction more than 95% of the control at 0.1 μM (Table 1). The present inventors obtained 1251 additional compounds derived from these 12 initial hits and tested them again for their activities against the gp96-AIMP1 interaction.
(In general: ELISA stands for enzyme-linked immunosorbent assay.)

A further assay has as its system HL-60 cell lines. The assay can be described thus: FACS analysis of gp96 on cell surface of HL-60 cell lines. It is filed as cell-based. As to conditions: 1 mM, 24 hours. As for the experimental part:
FIG. 35 is a graph showing an FACS analysis result using gp96 antibody, on the amount of gp96 protein existing on a cell surface, when HL-60 cell lines were treated with a 2,4-pyrimidine derivatives at a concentration of 1 mM for 24 hours.
Also, HL-60 cell lines were treated with a 2,4-pyrimidine derivative at a concentration of 1 mM for 24 hours, and the amount of gp96 protein existing on a cell surface was analyzed through flow cytometry (FACS) using gp96 antibody.

“Also recorded” adds a separate entry of the source.

interaction of gp96 and AIMP1, sequence (P08113 22-802): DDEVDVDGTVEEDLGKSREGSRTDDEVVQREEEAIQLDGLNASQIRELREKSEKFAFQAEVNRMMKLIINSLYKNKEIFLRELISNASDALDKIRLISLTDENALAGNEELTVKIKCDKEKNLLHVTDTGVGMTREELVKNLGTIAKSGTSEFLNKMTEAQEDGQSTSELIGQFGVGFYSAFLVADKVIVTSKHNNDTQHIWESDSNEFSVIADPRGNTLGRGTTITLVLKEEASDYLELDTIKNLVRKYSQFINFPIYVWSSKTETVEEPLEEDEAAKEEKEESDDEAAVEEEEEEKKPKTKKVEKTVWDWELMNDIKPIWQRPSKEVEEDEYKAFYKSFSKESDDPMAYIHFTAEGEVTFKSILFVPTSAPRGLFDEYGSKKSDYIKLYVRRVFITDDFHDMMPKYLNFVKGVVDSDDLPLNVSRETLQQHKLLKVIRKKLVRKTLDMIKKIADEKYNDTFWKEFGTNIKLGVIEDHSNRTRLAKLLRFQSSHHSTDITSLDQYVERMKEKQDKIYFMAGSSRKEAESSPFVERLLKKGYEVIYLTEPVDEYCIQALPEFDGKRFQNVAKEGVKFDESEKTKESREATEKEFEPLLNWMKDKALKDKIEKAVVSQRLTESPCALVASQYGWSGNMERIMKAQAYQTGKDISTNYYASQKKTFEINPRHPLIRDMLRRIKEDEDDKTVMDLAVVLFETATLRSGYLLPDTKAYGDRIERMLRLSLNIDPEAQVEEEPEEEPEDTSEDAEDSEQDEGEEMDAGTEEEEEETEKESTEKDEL

Regarding `COc1cc(OC)nc(OC(Cc2ccccc2)C(=O)O)n1` (stereo not shown) [NC1, 2-(4,6-dimethoxypyrimidin-2-yloxy)-3-phenylpropanoic acid, reference compound], in assay [1], the “surface gp96 of mouse splenocytes” value is listed as “not”. Moreover, the “inhibition on the interaction of gp96 and AIMP1” value in assay [2] was determined as 4%. In assay [2] (ELISA), the “dose-dependent effect on the interaction of gp96 and AIMP1” value is “no effect”. `COc1cc(OC)nc(OC(C(=O)N(C)OC)C(C)C)n1` (stereo not shown) [KR-S-006, 2-(4,6-dimethoxy-pyrimidin-2-yloxy)-N-methoxy-3,N-dimethyl-butyl amide]: the “amount of gp96 protein existing on a cell surface” value (from here on “amount of gp96 protein existing”) in the assay on HL-60 cell lines is recorded as “better effects than KR-S-015; also recorded: better than ester (KR-S-010) or acid (KR-S-009)”. `COc1cc(OC)nc(O[C@H](C(=O)O)C(C)C)n1` [KR-S-022, L-2-(4,6-Dimethoxy-pyrimidin-2-yloxy)-3-methyl-butyric acid]: the “amount of gp96 protein existing” value in the assay on HL-60 cell lines is recorded as “better effects than KR-S-015”. Still for that read-out and setting: under `COc1cc(OC)nc(O[C@H](C)C(=O)O)n1` [KR-S-023, D-2-(4,6-Dimethoxy-pyrimidin-2-yloxy)-propionic acid] stands “better effects than KR-S-015; also recorded: better than isopropyl (KR-S-009, KR-S-010)”; under `COC(=O)C(C)(C)Oc1nc(OC)cc(OC)n1` [KR-S-013, 2-(4,6-Dimethoxy-pyrimidin-2-yloxy)-2-methyl-propionic acid methyl ester], “better effects than KR-S-015”. In the case of `CCCCNC(=O)C(Oc1nc(OC)cc(OC)n1)c1ccccc1` (stereo not shown) [KR-S-020, N-Butyl-2-(4,6-dimethoxy-pyrimidin-2-yloxy)-2-phenyl-acetamide], the “amount of gp96 protein existing” value in the assay on HL-60 cell lines is given as “better effects than KR-S-015”. Take `CCN(CC)C(=O)C(Oc1nc(OC)cc(OC)n1)C(C)C` (stereo not shown) [KR-S-001, 2-(4,6-Dimethoxy-pyrimidin-2-yloxy)-N,N-diethyl-3-methyl-butyl amide]: the “amount of gp96 protein existing” value in the assay with HL-60 cell lines is “better effects than KR-S-015; also recorded: better than ester (KR-S-010) or acid (KR-S-009)”.

Consider `COc1cc(OC)nc(OC(C(=O)N2CCOCC2)C(C)C)n1` (stereo not shown) [KR-S-008, 2-(4,6-dimethoxy-pyrimidin-2-yloxy)-3-methyl-1-morpholin-4-yl-butan-1-one], for which the “amount of gp96 protein existing” value in the assay with HL-60 cell lines is “better effects than KR-S-015; also recorded: better than ester (KR-S-010) or acid (KR-S-009)”.
